Consider 20 molecules from US11053235B2, “Substituted 1,4-dihydropyrimidines for the treatment of HBV infection or HBV-induced diseases” (Janssen Sciences Ireland Unlimited Company, priority 2018, dated 2021).

The nature of data set [1]: Cytotoxicity determination in HepG2.2.15 cells (CCK-8). The class given is cell-based. The conditions noted are these: human, 6 days treatment, CCK-8, highest concentration 100 uM. The procedure, abridged: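 CC50 derived from CCK-8 absorbance (450 nm, 630 nm reference) after 2.5 h incubation at 37 °C. Before that, HepG2.2.15 cells (5,000/well, 2% FBS) received an 8-point, 3-fold compound series topping at 100 uM for 6 days, with one mid-treatment medium change.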

Another data set relates to HBV. Description: Anti-viral assay in HepG2.2.15 cells: HBV inhibitory activity (HBV DNA in culture medium by q-PCR). The class given is cell-based. Particulars: Hepatitis B virus, HepG2.2.15, 144 h, HepG2.2.15 cells, 6 days treatment, HBV DNA in culture medium by q-PCR, highest concentration 10 uM; read-out: EC50. Summed up:
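HBV DNA released into the medium was measured by q-PCR after 6-day compound exposure of HepG2.2.15 cells (40,000/well, 2% FBS, one mid-course medium change). Eight 3-fold dilutions, highest 10 uM; EC50 derived by curve fitting.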

In data set [1], `CCOC(=O)C1=C(C2CN(c3nc(C(=O)O)co3)C2)NC(c2nccs2)=NC1c1ccc(F)c(F)c1Cl` (single isomer, unassigned) [II-86-B, 2-(3-(6-(2-Chloro-3,4-difluorophenyl)-5-(ethoxycarbonyl)-2-(thiazol-2-yl)-3,6-dihydropyrimidin-4-yl)azetidin-1-yl)oxazole-4-carboxylic Acid] had a CC50 at 6 days of 9.4 µM. Moreover, the EC50 with HBV came out at 2870 nM.

`CCOC(=O)C1=C(C2CCN(c3ncc(C)c(C(=O)O)n3)CC2)NC(c2nccs2)=NC1c1ccc(F)cc1Cl` (single isomer, unassigned) [II-20-B, 2-(4-(6-(2-Chloro-4-fluorophenyl)-5-(ethoxycarbonyl)-2-(thiazol-2-yl)-3,6-dihydropyrimidin-4-yl)piperidin-1-yl)-5-methylpyrimidine-4-carboxylic Acid] yielded a CC50 at 6 days in data set [1] of 16.8 µM. In the data set with HBV, the EC50 amounted to 15 nM.

`CCOC(=O)C1=C(C2CCN(c3cc(C(=O)O)nc(C)n3)CC2)NC(c2nccs2)=NC1c1ccc(F)c(F)c1Cl` (single isomer, unassigned) [II-53-B, 6-(4-(6-(2-Chloro-3,4-difluorophenyl)-5-(ethoxycarbonyl)-2-(thiazol-2-yl)-3,6-dihydropyrimidin-4-yl)piperidin-1-yl)-2-methylpyrimidine-4-carboxylic Acid] gave a CC50 at 6 days in data set [1] of 9.05 µM. Also, in the data set with HBV, the EC50 stood at 98 nM.

The molecule `CCOC(=O)C1=C(C2CCN(c3cc(C(=O)O)nc(OC)n3)CC2)NC(c2nccs2)=NC1c1ccc(F)c(F)c1Cl` (single isomer, unassigned) [II-52-B, 6-(4-(6-(2-Chloro-3,4-difluorophenyl)-5-(ethoxycarbonyl)-2-(thiazol-2-yl)-3,6-dihydropyrimidin-4-yl)piperidin-1-yl)-2-methoxypyrimidine-4-carboxylic Acid] yielded a CC50 at 6 days in data set [1] of 3.7 µM. The EC50 with HBV was found to be 51 nM.

For `CCOC(=O)C1=C(C2CCN(c3cc(C(=O)O)cc(C(F)(F)F)n3)CC2)NC(c2nccs2)=NC1c1ccc(F)c(F)c1Cl` (single isomer, unassigned) [II-38-B, 2-(4-(6-(2-chloro-3,4-difluorophenyl)-5-(ethoxycarbonyl)-2-(thiazol-2-yl)-3,6-dihydropyrimidin-4-yl)piperidin-1-yl)-6-(trifluoromethyl)isonicotinic Acid], in data set [1], the CC50 at 6 days was found to be 3.88 µM. In addition, the EC50 in the data set on HBV is 81 nM.

With `CCOC(=O)C1=C(C2CCN(c3cc(C(=O)O)ccn3)CC2)NC(c2nccs2)=NC1c1ccc(F)c(F)c1Cl` (single isomer, unassigned) [II-41-B, 2-(4-(6-(2-Chloro-3,4-difluorophenyl)-5-(ethoxycarbonyl)-2-(thiazol-2-yl)-3,6-dihydropyrimidin-4-yl)piperidin-1-yl)isonicotinic Acid], it took 10.2 µM to reach half-maximal cytotoxicity in data set [1] (CC50 at 6 days). Also, the EC50 with HBV was determined as 5.2 nM.

For `COC(=O)C1=C(C2CCN(c3ncc(C(=O)O)s3)CC2)NC(c2nccs2)=NC1c1cccc(F)c1Cl` (single isomer, unassigned) [II-10-B, 2-(4-(6-(2-Chloro-3-fluorophenyl)-5-(methoxycarbonyl)-2-(thiazol-2-yl)-3,6-dihydropyrimidin-4-yl)piperidin-1-yl)thiazole-5-carboxylic Acid], the CC50 at 6 days in data set [1] turned out to be 17.2 µM. Also, in the data set with HBV, the EC50 amounted to 9.2 nM.

With `CCOC(=O)C1=C([C@H]2CC[C@H](n3nccc3C(=O)O)CC2)NC(c2nccs2)=NC1c1ccc(F)c(F)c1Cl` (single isomer, unassigned) [Compound I-39-C, (trans)-1-(4-(6-(2-Chloro-3,4-difluorophenyl)-5-(ethoxycarbonyl)-2-(thiazol-2-yl)-3,6-dihydropyrimidin-4-yl)cyclohexyl)-1H-pyrazole-5-carboxylic Acid], the CC50 at 6 days in data set [1] amounted to 7.75 µM. In the data set with HBV, the EC50 is 110 nM.

`CCOC(=O)C1=C(C2CCN(c3ncc(CC(=O)O)cn3)CC2)NC(c2nccs2)=NC1c1ccc(F)c(F)c1Cl` (single isomer, unassigned) [II-69-B, 2-(2-(4-(6-(2-Chloro-3,4-difluorophenyl)-5-(ethoxycarbonyl)-2-(thiazol-2-yl)-3,6-dihydropyrimidin-4-yl)piperidin-1-yl)pyrimidin-5-yl)acetic Acid] gave a CC50 at 6 days in data set [1] of 4.08 µM. Moreover, the EC50 in the data set with HBV amounted to 3.1 nM.

Molecule `CCOC(=O)C1=C(C2CCN(c3ncc(CCC(=O)O)cn3)CC2)NC(c2nccs2)=NC1c1ccc(F)c(F)c1Cl` (single isomer, unassigned) [II-66-B, 3-(2-(4-(6-(2-Chloro-3,4-difluorophenyl)-5-(ethoxycarbonyl)-2-(thiazol-2-yl)-3,6-dihydropyrimidin-4-yl)piperidin-1-yl)pyrimidin-5-yl)propanoic Acid] had a CC50 at 6 days in data set [1] of 10.9 µM. For the same molecule, in the data set with HBV, the EC50 came out at 7.2 nM.

In turn, `CCOC(=O)C1=C(C2CCN(c3nc(C(=O)O)co3)C2)NC(c2nccs2)=NC1c1ccc(F)c(F)c1Cl` (single isomer, unassigned) [II-85-A, 2-(3-(6-(2-chloro-3,4-difluorophenyl)-5-(ethoxycarbonyl)-2-(thiazol-2-yl)-3,6-dihydropyrimidin-4-yl)pyrrolidin-1-yl)oxazole-4-carboxylic Acid] had a CC50 at 6 days in data set [1] of 4.49 µM. Further, in the data set with HBV, the EC50 is 720 nM.

For `COC(=O)C1=C(C2CCN(c3ncc(C)c(C(=O)O)n3)CC2)NC(c2nccs2)=NC1c1ccc(Br)cc1Cl` (single isomer, unassigned) [II-81-B, 2-(4-(6-(4-bromo-2-chlorophenyl)-5-(methoxycarbonyl)-2-(thiazol-2-yl)-3,6-dihydropyrimidin-4-yl)piperidin-1-yl)-5-methylpyrimidine-4-carboxylic Acid], the CC50 at 6 days in data set [1] was 12.4 µM. Besides, the EC50 in the data set with HBV stood at 54 nM.

As to `COC(=O)C1=C([C@H]2CC[C@H](c3nc(C(=O)O)co3)CC2)NC(c2nccs2)=NC1c1cccc(F)c1Cl` (single isomer, unassigned) [Compound I-5-B, (trans)-2-(4-(6-(2-Chloro-3-fluorophenyl)-5-(methoxycarbonyl)-2-(thiazol-2-yl)-3,6-dihydropyrimidin-4-yl)cyclohexyl)oxazole-4-carboxylic Acid], it took 19.3 µM to reach half-maximal cytotoxicity in data set [1] (CC50 at 6 days). In addition, the EC50 in the data set with HBV came out at 60 nM.

The molecule `CCOC(=O)C1=C(C2CCN(c3ncc(C(=O)O)c(C)n3)CC2)NC(c2nccs2)=NC1c1ccc(F)c(F)c1Cl` (single isomer, unassigned) [II-73-B, 2-(4-(6-(2-Chloro-3,4-difluorophenyl)-5-(ethoxycarbonyl)-2-(thiazol-2-yl)-3,6-dihydropyrimidin-4-yl)piperidin-1-yl)-4-methylpyrimidine-5-carboxylic Acid] had a CC50 at 6 days in data set [1] of 5.92 µM. In the data set with HBV, the EC50 is 25 nM.

As for `COC(=O)C1=C(C2CCN(C(=O)c3cn[nH]c3)CC2)NC(c2nccs2)=NC1c1ccc(F)cc1Cl` (single isomer, unassigned) [II-11-X, Methyl 6-(1-(1H-pyrazole-4-carbonyl)piperidin-4-yl)-4-(2-chloro-4-fluorophenyl)-2-(thiazol-2-yl)-1,4-dihydropyrimidine-5-carboxylate], the CC50 at 6 days in data set [1] turned out to be 16.2 µM. Besides, the EC50 with HBV was found to be 58 nM.

For `COC(=O)C1=C(C2CCN(C(=O)c3cnn(C)c3)CC2)NC(c2nccs2)=NC1c1ccc(F)cc1Cl` (single isomer, unassigned) [II-12-B, Methyl 4-(2-chloro-4-fluorophenyl)-6-(1-(1-methyl-1H-pyrazole-4-carbonyl)piperidin-4-yl)-2-(thiazol-2-yl)-1,4-dihydropyrimidine-5-carboxylate], the CC50 at 6 days in data set [1] was 25.5 µM. For the same molecule, in the data set with HBV, the EC50 was 66 nM.

For the molecule `CCOC(=O)C1=C(C2CCN(c3cc(O)c(C(=O)O)cn3)CC2)NC(c2nccs2)=NC1c1ccc(F)c(F)c1Cl` (single isomer, unassigned) [II-36-B, 6-(4-(6-(2-chloro-3,4-difluorophenyl)-5-(ethoxycarbonyl)-2-(thiazol-2-yl)-3,6-dihydropyrimidin-4-yl)piperidin-1-yl)-4-hydroxynicotinic Acid], half-maximal cytotoxicity in data set [1] (CC50 at 6 days) was put at 8.65 µM. Moreover, the EC50 with HBV was determined as 52 nM.

Molecule `COC(=O)C1=C(C2CCN(c3nccc(CC(=O)O)n3)CC2)NC(c2nccs2)=NC1c1ccc(F)cc1Cl` (single isomer, unassigned) [II-13-A, 2-(2-(4-(6-(2-chloro-4-fluorophenyl)-5-(methoxycarbonyl)-2-(thiazol-2-yl)-3,6-dihydropyrimidin-4-yl)piperidin-1-yl)pyrimidin-4-yl)acetate] yielded a CC50 at 6 days in data set [1] of 24.4 µM. In the data set on HBV, the EC50 was determined as 190 nM.

On to `COC(=O)C1=C(C2CCN(c3ncc(N4CCC(C(=O)O)CC4)cn3)CC2)NC(c2nccs2)=NC1c1ccc(F)cc1Cl` (single isomer, unassigned) [II-90-B, 1-(2-(4-(6-(2-chloro-4-fluorophenyl)-5-(methoxycarbonyl)-2-(thiazol-2-yl)-3,6-dihydropyrimidin-4-yl)piperidin-1-yl)pyrimidin-5-yl)piperidine-4-carboxylic acid], for which, in data set [1], half-maximal cytotoxicity (CC50 at 6 days) was put at 19 µM. The concentration for a half-maximal effect (EC50) with HBV is 5.4 nM.

For `CCOC(=O)C1=C([C@H]2CC[C@@H](n3nccc3C(=O)O)CC2)NC(c2nccs2)=NC1c1ccc(F)c(F)c1Cl` (single isomer, unassigned) [Compound I-39-B, (cis)-1-(4-(6-(2-Chloro-3,4-difluorophenyl)-5-(ethoxycarbonyl)-2-(thiazol-2-yl)-3,6-dihydropyrimidin-4-yl)cyclohexyl)-1H-pyrazole-5-carboxylic Acid], the CC50 at 6 days in data set [1] is 7.59 µM. The EC50 with HBV was determined as 82 nM.

The term CC50 denotes the concentration that lowers cell viability or growth by half. As a reminder, the EC50 is the concentration that produces a half-maximal response.
